The text below walks through data of PubChem BioAssay AID179 (DTP/NCI, 2004).

The subject of this test is CEM cells HIV-1 protection, formazan growth assay. Description: NCI AIDS Antiviral Assay. The conditions noted are these: for pIC50: measured here: growth of uninfected CEM cells. The procedure, abridged: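 Human CEM cells, uninfected and HIV-1-infected, exposed to five drug concentrations; growth measured by soluble formazan assay and scored as percent protection from infection, with protecting compounds retested.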

pEC50, pIC50: −log10 of the molar value. Calls of active or inactive are those of the source.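 Rule for the calls: active = compounds giving half or more protection of infected cells from virus-caused growth loss, again on retest; inactive = the rest.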 Where a SMILES comes first, the peptide text is derived from it. Bounds are passed on as bounds.

On to `CN(C)CCCNc1ccnc2cc([N+](=O)[O-])ccc12`, for which the pEC50 was below 3.70 and the pIC50 was 4.89.

Turning to `O=C1OC(C2Cc3ccc4ccccc4c3C2=O)c2ccccc21` (configuration not stated), the pEC50 is below 4.00 and the pIC50 is 4.13.

As to `O=C(O)CNS(=O)(=O)c1ccc(NC(=O)c2ccc(F)cc2)cc1`, the outcome was inactive.

Consider `O=c1sccc2ccccc12`, for which the pEC50 was below 3.38 and the pIC50 was below 3.38.

For `CC1=NN(C(=O)c2ccc(Cl)cc2)C(=O)/C1=C/c1cccc(O)c1`, the pEC50 is below 5.10 and the pIC50 was below 5.10.

For `COC1(C)CCC2(O)C(=O)OC3C(O)COC32O1` (configuration not stated), the pEC50 was below 3.70 and the pIC50 was below 3.70.

On to `COc1ccc(C2C(Cl)C(=O)N2NC(=O)c2ccc(NC(C)=O)cc2)cc1OC` (configuration not stated), for which the pEC50 is below 3.70 and the pIC50 was below 3.70.

Regarding `CN(C)CN1C(=O)S/C(=C2\C(=O)N(CN(C)C)c3ccccc32)C1=O`, the pEC50 was below 3.70 and the pIC50 was 4.42.

For `CCC(=O)COc1ccc(NC(NC(=O)C(C(F)(F)F)C(F)(F)F)(C(F)(F)F)C(F)(F)F)cc1`, the outcome was inactive.

On to `Cc1cc([N+](=O)[O-])ccc1N=NC(=O)NNc1ccc([N+](=O)[O-])cc1C`, for which the pEC50 was below 3.70 and the pIC50 was 4.47.

As to `C/C(=N\Nc1ccccc1)C(CN(C)C)C(c1ccccc1)c1c(O)c2ccccc2oc1=O` (configuration not stated), the pEC50 is below 4.56 and the negative logarithm of the IC50 (pIC50) is below 4.56.

In the case of `C[N+]1(C)CC2C3C=C(I)C(C3)C2C1` (configuration not stated), the pEC50 is below 3.67 and the negative-log IC50 (pIC50) was below 3.67.

With `O=C(Nc1ccc(Cl)cc1)NS(=O)(=O)c1coc2ccccc2c1=O`, the pEC50 is below 3.70 and the pIC50 is 4.03.

Take `CC(C)C(C(=O)O)N(CC1(O)OCC(O)C(O)C1O)N=O` (configuration not stated): the outcome was inactive.

Regarding `c1ccc(C2SCc3nc4ccccc4n32)cc1` (configuration not stated), the pEC50 is below 3.85 and the pIC50 is 4.45.

For `CN(/N=C/c1ccnc2ccccc12)c1ccc(Cl)cc1[N+](=O)[O-]`, the pEC50 was below 4.00 and the pIC50 was 4.91.

Turning to `Cc1cc(S(=O)(=O)Nc2nc(Nc3ccccc3)nn2C)c(S)cc1Cl`, the pEC50 was below 3.70 and the pIC50 was 3.78.

`CCCCN(CCCC)c1c([N+](=O)[O-])c(=O)nc2ccccn12`: the pEC50 is below 3.10 and the pIC50 is 5.77.

Take `O=C(NN1C(=O)C(Cl)C1c1cccc([N+](=O)[O-])c1)c1ccccc1O` (configuration not stated): the pEC50 was below 4.56 and the pIC50 is below 4.56.

On to `CC(C)N1CSC(=S)NCCNC(=S)SC1`, for which the pEC50 was below 3.70 and the pIC50 was 4.02.

Turning to `C/C=C/C=C\C=C/C(O)CC(OP(=O)(O)O)C(C)(O)/C=C/C1CC=CC(=O)O1` (configuration not stated), the pEC50 is below 3.24 and the pIC50 is 4.48.

As for `Oc1cc2ccc3c(c2cc1O)CCc1cn[nH]c1-3`, the pEC50 is below 4.97 and the pIC50 was below 4.97.

With `S=C(NC1CCCCC1)SSSC(=S)NC1CCCCC1`, the pEC50 was below 3.70 and the pIC50 is 4.56.

Consider `COc1ccc(N=N/C(=N/NC(=O)c2cc(Cl)ccc2C(=O)c2ccccc2)c2ccc(N(CCC#N)CCC#N)cc2C)cc1`, for which the pEC50 was below 4.00 and the negative-log IC50 (pIC50) is 4.85.

As for `O=C(CSSCC(=O)c1ccccc1)c1ccccc1`, the pEC50 is below 4.05 and the pIC50 was 4.96.

As for `C[CH2][Sn]([CH2]C)([O]C(=O)c1cccc(F)c1)[O][Sn]([CH2]C)([CH2]C)[O]C(=O)c1cccc(F)c1`, the pEC50 was below 5.23 and the pIC50 was below 5.23.

Take `O=[N+]([O-])c1cccc(N=Cc2ccc(O)cc2)c1`: the pEC50 was below 3.70 and the pIC50 was 3.74.

Regarding `COc1ccccc1NC(=O)C1=C(C)NC(C)=C(C(=O)Nc2ccccc2OC)C1/C=C/c1ccccc1`, the result was inactive.

For the compound `CC1=C(C(=O)Nc2ccc([N+](=O)[O-])cc2)C(c2ccccc2F)C(C(=O)Nc2ccc([N+](=O)[O-])cc2)=C(C)N1`, the pEC50 was below 4.87 and the pIC50 is below 4.87.

Take `CCCCCCCCCCCCOc1ccc(/C(=N\N=C(N)N)c2ccccc2)c(O)c1`: the pEC50 was below 3.70 and the negative-log IC50 (pIC50) was below 3.70.

For `OC12CCC3(OC4CCCCO4)c4ccccc4C3C1c1ccccc12` (configuration not stated), the pEC50 was below 3.70 and the pIC50 is 4.05.

Turning to `CSc1ncnc2c1ncn2CCC(=O)OC(C)(C)C`, the pEC50 is below 3.70 and the negative logarithm of the IC50 (pIC50) was below 3.70.

Regarding `COc1cc(/C=C2\C(=O)N(c3ccccc3)C(c3ccccc3)S2(=O)=O)cc(OC)c1OC` (configuration not stated), the pEC50 was below 4.70 and the pIC50 is 5.54.

As to `CN(C)CC1CCC/C(=C\c2ccc(Cl)cc2)C1=O` (configuration not stated), the pEC50 is below 4.70 and the pIC50 was 6.01.

Take `CC1(CCCC2(C)CCNC2=O)OCCO1` (configuration not stated): the pEC50 is below 3.70 and the pIC50 was below 3.70.

`CC(C)=NNc1cnnc2ccc([N+](=O)[O-])cc12`: the pEC50 is below 3.70 and the negative logarithm of the IC50 (pIC50) was 4.15.

Regarding `CCOP(=O)(OCC)C1C(CO)OC(n2ccc(=O)[nH]c2=O)C1O` (configuration not stated), the pEC50 is below 3.70 and the pIC50 is 4.13.

With `C=COC(=O)N1C2CCCC(Cl)(C(C)=O)C1CC2` (configuration not stated), the pEC50 is below 3.70 and the pIC50 was 4.26.

Take `O=[N+]([O-])c1cccc(C2CC(c3ccccc3)=Nc3ccccc3S2)c1` (configuration not stated): the pEC50 was below 4.45 and the pIC50 was 5.63.

In the case of `O=P1(O)c2ccccc2-c2ccccc21`, the pEC50 was below 3.70 and the negative-log IC50 (pIC50) was below 3.70.

Consider `NC1C2CN3CCC(O2)C13` (configuration not stated), for which the outcome was inactive.

`O=C1/C(=C/c2ccc([N+](=O)[O-])cc2)C(=O)N(c2ccccc2)C1c1ccccc1` (configuration not stated): the pEC50 was below 4.13 and the negative-log IC50 (pIC50) is 4.38.

With `COc1cc2c3c(c1)nc(C)n3C(=O)C(c1ccccc1)S2` (configuration not stated), the result was inactive.

Consider `CC(C)(CCC(C)(C)N1OC1c1ccccc1)N1OC1c1ccccc1` (configuration not stated), for which the pEC50 was below 3.70 and the negative-log IC50 (pIC50) is 4.72.

With `Cc1cnc2sn(-c3ccc(Oc4ccccc4)cc3)c(=O)c2c1`, the pEC50 was below 3.70 and the pIC50 was 5.00.

For the compound `Cn1c2ccccc2c2c3c(ccc21)C(=O)c1ccccc1C3=O`, the pEC50 was below 4.77 and the negative logarithm of the IC50 (pIC50) was below 4.77.

Turning to `Cc1ccc(NC(=O)CC2C(=O)Nc3ccccc3S2(=O)=O)cc1C` (configuration not stated), the pEC50 is below 4.98 and the pIC50 was below 4.98.

`Cc1ccc(C)c2c1n1c(=O)n(C)c(=O)n21`: the pEC50 was below 3.70 and the pIC50 is below 3.70.

Take `CN(CCN(C)C(=S)NN)C(=S)NN`: the pEC50 was below 3.70 and the pIC50 is 3.88.

For the compound `CCc1c(N=[N+]=[N-])c2ccccc2oc1=O`, the result was inactive.

Regarding `CCNCCNC(=O)c1ccc(Br)cc1`, the outcome was inactive.

With `O=C1OC(c2ccccc2)N/C1=C\c1ccc2c(c1)OCO2` (configuration not stated), the pEC50 was below 3.70 and the pIC50 was 4.16.

Regarding `COc1cc2[nH]c3c(c2cc1OC)CCN[C@@]31CC[C@@]2(CC3c4c(cc(OC)c(O)c42)CCN3C)C[C@@H]1OC` (some centres not stated), the outcome was inactive.

Regarding `CN(C)C(=NCc1ccccc1)NC#N`, the pEC50 was below 2.91 and the pIC50 was below 2.91.

For the compound `Cc1cccc(/C=N/NC(=S)Nc2ccccc2)n1`, the pEC50 was below 3.70 and the pIC50 is 5.70.

As to `COc1cc(N=Nc2ccc(C(=O)N(C)C)cc2)c(C)cc1N=Nc1c(O)c2ccccc2[nH]c1=O`, the pEC50 was below 3.70 and the pIC50 is below 3.70.

`c1cncc(C2(c3cc4ccccc4[nH]3)COCO2)c1` (configuration not stated): the pEC50 was below 3.70 and the pIC50 is 3.90.

In the case of `O=c1ccn([C@@H]2C[C@@H]2CO)c(=O)[nH]1`, the outcome was inactive.

Consider `CC(=O)O[C@H]1CC[C@H]2[C@@H]3CCC4=C(C(=O)C=CC4(C)OC(C)=O)[C@H]3CC[C@]12C` (some centres not stated), for which the pEC50 is below 3.70 and the pIC50 was 4.86.

In the case of `Nc1ccc(N=Nc2ccc(-c3ccc(N=Nc4c(S(=O)(=O)O)cc5cc(S(=O)(=O)O)c(N=Nc6ccc([N+](=O)[O-])cc6)c(N)c5c4O)cc3)cc2)c2cc(S(=O)(=O)O)ccc12`, the pEC50 is below 4.71 and the negative logarithm of the IC50 (pIC50) was below 4.71.

In the case of `C[N+](C)(C)CCNP(=O)(Oc1ccccc1)c1ccccc1` (configuration not stated), the pEC50 was below 3.25 and the pIC50 was below 3.25.

Regarding `Cc1cc(N(CCC#N)CCC#N)ccc1/C(N=Nc1cccc([N+](=O)[O-])c1)=N/NC(=O)c1cc(Cl)ccc1O`, the pEC50 is below 3.70 and the pIC50 was 4.92.

`Nc1cc2ncnn2c(SCC(=O)N/N=C/C(Br)=C\c2ccccc2)n1`: the pEC50 was below 3.70 and the pIC50 was 5.10.

As to `CC(=O)CC(=O)Nc1ccccc1.CC(=O)CC(=O)Nc1ccccc1.[Cu]`, the pEC50 is below 3.70 and the pIC50 was 4.76.

On to `C=CC1(C)CCC2=C(CCC3C(C)(C(=O)OC)CCCC23C)C1=O` (configuration not stated), for which the pEC50 is below 3.70 and the negative logarithm of the IC50 (pIC50) was 4.54.

In the case of `CC(=O)C(CN(C)Cc1ccccc1)C(c1ccccc1)c1c(O)c2ccccc2oc1=O` (configuration not stated), the pEC50 is below 4.41 and the negative-log IC50 (pIC50) was below 4.41.

For the compound `C[PH+](C)CC[PH+](CC[PH+](c1ccccc1)c1ccccc1)c1ccccc1.[C-]#[O+].[C-]#[O+].[C-]#[O+].[Mo]` (configuration not stated), the result was inactive.

As for `CCOC(=O)Cc1c(C)c2ccc(OC(C)=O)c(OC(C)=O)c2oc1=O`, the pEC50 is below 3.70 and the pIC50 is 4.44.

For the compound `CC(C)CC(NC(=O)C(Cc1ccc(O)cc1)NC(=O)C(CO)NC(=O)C(C)NC(=O)C(CO)NC(=O)C(CCC(N)=O)NC(=O)C(NC(=O)C(N)CCC(=O)O)C(C)C)C(=O)NC(CCCN=C(N)N)C(=O)NC(CCCCN)C(=O)O` (configuration not stated) (H-EVQSASYLRK-OH; configuration not given here), the outcome was inactive.

Consider `O=c1onc(Nc2ccccc2)n1-c1ccccc1`, for which the pEC50 was below 3.70 and the pIC50 was 3.89.

As to `CCOC(=O)/C=C(\CCOC1CCCCO1)[Si](C)(C)c1ccccc1` (configuration not stated), the pEC50 was below 4.70 and the pIC50 is below 4.70.

`CSC1=C(C(=O)Nc2ccc(Cl)cc2)C(N)=NC1=O`: the pEC50 is below 4.00 and the pIC50 was 4.13.

In general, pEC50 refers to the EC50 on a negative log10 scale, so that one unit is a factor of ten. The pIC50 is the IC50 on a negative log10 scale, so that one unit is a factor of ten.
